Some results are limits rather than exact numbers.

One assay deals with TEL-KIT/T670I-BaF3. The experiment in a line: Proliferation of TEL-KIT/T670I-BaF3 cells (CCK-8). Conditions: Mus musculus; 72 hours, CCK-8; read-out: GI50 TEL-KIT/T670I-BaF3. The format is cell-based, mouse. From the text:
(§1) Compounds as provided herein were further evaluated for their inhibitory effects on proliferation of cancer cells by testing their effects on growth of cancer cells. In this example the following cells were used: primary mouse B cells BaF3 (purchased from ATCC), GIST-T1 cells of the human gastrointestinal stromal tumor cell line (expressing wild-type KIT gene) (purchased from Cosmo Bio Co., Ltd. (Japan)). The present lab further constructed and used the following: mouse Tel-Kit-BaF3 (stably expressing KIT wild-type kinase), mouse Tel-Kit/T670I-BaF3 (stably expressing KIT T670I mutant kinase), mouse Tel-Kit/V559A-BaF3 (stably expressing KIT V559A mutant kinase), mouse Tel-Kit/V559D-BaF3 (stably expressing KIT V559D mutant kinase), mouse Tel-Kit/V559G-BaF3 (stably expressing KIT V559G mutant kinase), mouse Tel-Kit/V560D-BaF3 (stably expressing KIT V560D mutant kinase), mouse Tel-Kit/L576P-BaF3 (stably expressing KIT L576P mutant kinase), mouse Tel-Kit/V654A-BaF3 (stably expressing KIT V654A mutant kinase), mouse Tel-Kit/V654A/V559D-BaF3 (stably expressing KIT V654A V559D mutant kinase), mouse Tel-Kit/T670E-BaF3 (stably expressing KIT T670E mutant kinase), mouse Tel-Kit/T670I/V559D-BaF3 (stably expressing KIT T670I V559D mutant kinase), mouse Tel-Kit/S709F-BaF3 (stably expressing KIT S709F mutant kinase), mouse Tel-Kit/D816E-BaF3 (stably expressing KIT D816E mutant kinase), mouse Tel-Kit/D816H-BaF3 (stably expressing KIT D816H mutant kinase), mouse Tel-Kit/D820E-BaF3 (stably expressing KIT D820E mutant kinase), mouse Tel-Kit/D820G-BaF3 (stably expressing KIT D820G mutant kinase), mouse Tel-Kit/D820Y-BaF3 (stably expressing KIT D820Y mutant kinase), mouse Tel-Kit/N822K-BaF3 (stably expressing KIT N822K mutant kinase), mouse Tel-Kit/Y823D-BaF3 (stably expressing KIT Y823D mutant kinase), mouse Tel-Kit/A829P-BaF3 (stably expressing KIT A829P mutant kinase), GIST-T1-T670I cells of the human gastrointestinal stromal tumor cell line (expressing KIT-T670I mutant gene). The above cell lines were constructed by: amplifying respectively the sequences of human KIT and various mutant kinase regions of KIT via PCR, inserting the fragments respectively into MSCV-Puro vectors having a N-terminal TEL fragment and/or a NPM fragment and/or a TPR fragment (purchased from Clontech), transfecting mouse BaF3 cells with the vectors by means of retrovirus to obtain stably transfected cells, removing the growth factor IL-3, and thereby eventually obtaining cell lines that depend on the transferred protein KIT or various mutants of KIT. The GIST-T1-T670I (expressing C-KIT-T670I mutant gene) cell line was constructed by our laboratory as follows: designing sgRNA that targeted a region around T670 of the KIT gene with CRISPR Design Tool (website: crispr.mit.edu, Zhang Feng Lab), cloning it into pSpCas9(BB)-2A-Puro vector; co-transfecting cells with the resultant vector and a single-stranded oligonucleotide having T670I site mutation that is near to T670, subjecting the resultant to antibiotics screening, followed by dilution, and monocellular culture in a 96-well plate; validating the site T670 of the cells by sequence detection via Sanger sequencing.

The next assay relates to TEL-KIT/V559A-BaF3. In words: Proliferation of TEL-KIT/V559A-BaF3 cells (CCK-8). The following applies: Mus musculus; 72 hours, CCK-8; read-out: GI50 TEL-KIT/V559A-BaF3. The format is cell-based.
Text: as §1, with “The GIST-T1-T670I (expressing C-KIT-T670I mutant gene) cell line was constructed by our laboratory as follows: designing sgRNA that targeted a region around T670 of the KIT gene with CRISPR Design Tool (website: crispr.mit.edu, Zhang Feng Lab), cloning it into pSpCas9(BB)-2A-Puro vector; co-transfecting cells with the resultant vector and a single-stranded oligonucleotide having T670I site mutation that is near to T670, subjecting the resultant to antibiotics screening, followed by dilution, and monocellular culture in a 96-well plate; validating the site T670 of the cells by sequence detection via Sanger sequencing.” left out

The subject of the next assay is TEL-KIT/V559D-BaF3. The experiment in a line: Proliferation of TEL-KIT/V559D-BaF3 cells (CCK-8). The following applies: Mus musculus; 72 hours, CCK-8; read-out: GI50 TEL-KIT/V559D-BaF3. It counts as cell-based.
Text: as §1, with “The GIST-T1-T670I (expressing C-KIT-T670I mutant gene) cell line was constructed by our laboratory as follows: designing sgRNA that targeted a region around T670 of the KIT gene with CRISPR Design Tool (website: crispr.mit.edu, Zhang Feng Lab), cloning it into pSpCas9(BB)-2A-Puro vector; co-transfecting cells with the resultant vector and a single-stranded oligonucleotide having T670I site mutation that is near to T670, subjecting the resultant to antibiotics screening, followed by dilution, and monocellular culture in a 96-well plate; validating the site T670 of the cells by sequence detection via Sanger sequencing.” left out

The subject of the next assay is TEL-KIT/V559G-BaF3. The experiment in a line: Proliferation of TEL-KIT/V559G-BaF3 cells (CCK-8). It counts as cell-based. Conditions: Mus musculus; 72 hours, CCK-8; read-out: GI50 TEL-KIT/V559G-BaF3.
Text: as §1, with “The GIST-T1-T670I (expressing C-KIT-T670I mutant gene) cell line was constructed by our laboratory as follows: designing sgRNA that targeted a region around T670 of the KIT gene with CRISPR Design Tool (website: crispr.mit.edu, Zhang Feng Lab), cloning it into pSpCas9(BB)-2A-Puro vector; co-transfecting cells with the resultant vector and a single-stranded oligonucleotide having T670I site mutation that is near to T670, subjecting the resultant to antibiotics screening, followed by dilution, and monocellular culture in a 96-well plate; validating the site T670 of the cells by sequence detection via Sanger sequencing.” left out

Another assay has as its system TEL-KIT/V560D-BaF3. The experiment in a line: Proliferation of TEL-KIT/V560D-BaF3 cells (CCK-8). The format is cell-based. Conditions: Mus musculus; 72 hours, CCK-8; read-out: GI50 TEL-KIT/V560D-BaF3.
Text: as §1, with “The GIST-T1-T670I (expressing C-KIT-T670I mutant gene) cell line was constructed by our laboratory as follows: designing sgRNA that targeted a region around T670 of the KIT gene with CRISPR Design Tool (website: crispr.mit.edu, Zhang Feng Lab), cloning it into pSpCas9(BB)-2A-Puro vector; co-transfecting cells with the resultant vector and a single-stranded oligonucleotide having T670I site mutation that is near to T670, subjecting the resultant to antibiotics screening, followed by dilution, and monocellular culture in a 96-well plate; validating the site T670 of the cells by sequence detection via Sanger sequencing.” left out

For another assay, the system named is TEL-KIT/V654A/V559D-BaF3. The experiment in a line: Proliferation of TEL-KIT/V654A/V559D-BaF3 cells (CCK-8). The format is cell-based. Conditions: Mus musculus; 72 hours, CCK-8; read-out: GI50 TEL-KIT/V654A/V559D-BaF3.
Text: as §1, with “The GIST-T1-T670I (expressing C-KIT-T670I mutant gene) cell line was constructed by our laboratory as follows: designing sgRNA that targeted a region around T670 of the KIT gene with CRISPR Design Tool (website: crispr.mit.edu, Zhang Feng Lab), cloning it into pSpCas9(BB)-2A-Puro vector; co-transfecting cells with the resultant vector and a single-stranded oligonucleotide having T670I site mutation that is near to T670, subjecting the resultant to antibiotics screening, followed by dilution, and monocellular culture in a 96-well plate; validating the site T670 of the cells by sequence detection via Sanger sequencing.” left out

A further assay deals with TEL-KIT/V654A-BaF3. The experiment in a line: Proliferation of TEL-KIT/V654A-BaF3 cells (CCK-8). It counts as cell-based. The following applies: Mus musculus; 72 hours, CCK-8; read-out: GI50 TEL-KIT/V654A-BaF3.
Text: as §1, with “The GIST-T1-T670I (expressing C-KIT-T670I mutant gene) cell line was constructed by our laboratory as follows: designing sgRNA that targeted a region around T670 of the KIT gene with CRISPR Design Tool (website: crispr.mit.edu, Zhang Feng Lab), cloning it into pSpCas9(BB)-2A-Puro vector; co-transfecting cells with the resultant vector and a single-stranded oligonucleotide having T670I site mutation that is near to T670, subjecting the resultant to antibiotics screening, followed by dilution, and monocellular culture in a 96-well plate; validating the site T670 of the cells by sequence detection via Sanger sequencing.” left out

A further assay relates to TEL-KIT/T670E-BaF3. The experiment in a line: Proliferation of TEL-KIT/T670E-BaF3 cells (CCK-8). The format is cell-based. Conditions: Mus musculus; 72 hours, CCK-8; read-out: GI50 TEL-KIT/T670E-BaF3.
Text: as §1, with “The GIST-T1-T670I (expressing C-KIT-T670I mutant gene) cell line was constructed by our laboratory as follows: designing sgRNA that targeted a region around T670 of the KIT gene with CRISPR Design Tool (website: crispr.mit.edu, Zhang Feng Lab), cloning it into pSpCas9(BB)-2A-Puro vector; co-transfecting cells with the resultant vector and a single-stranded oligonucleotide having T670I site mutation that is near to T670, subjecting the resultant to antibiotics screening, followed by dilution, and monocellular culture in a 96-well plate; validating the site T670 of the cells by sequence detection via Sanger sequencing.” left out

The subject of the next assay is TEL-KIT/T670I/V559D-BaF3. The experiment in a line: Proliferation of TEL-KIT/T670I/V559D-BaF3 cells (CCK-8). It counts as cell-based. The following applies: Mus musculus; 72 hours, CCK-8; read-out: GI50 TEL-KIT/T670I/V559D-BaF3.
Text: as §1, with “The GIST-T1-T670I (expressing C-KIT-T670I mutant gene) cell line was constructed by our laboratory as follows: designing sgRNA that targeted a region around T670 of the KIT gene with CRISPR Design Tool (website: crispr.mit.edu, Zhang Feng Lab), cloning it into pSpCas9(BB)-2A-Puro vector; co-transfecting cells with the resultant vector and a single-stranded oligonucleotide having T670I site mutation that is near to T670, subjecting the resultant to antibiotics screening, followed by dilution, and monocellular culture in a 96-well plate; validating the site T670 of the cells by sequence detection via Sanger sequencing.” left out

The next assay has as its system TEL-KIT/S709F-BaF3. The experiment in a line: Proliferation of TEL-KIT/S709F-BaF3 cells (CCK-8). The format is cell-based. Conditions: Mus musculus; 72 hours, CCK-8; read-out: GI50 TEL-KIT/S709F-BaF3.
Text: as §1, with “The GIST-T1-T670I (expressing C-KIT-T670I mutant gene) cell line was constructed by our laboratory as follows: designing sgRNA that targeted a region around T670 of the KIT gene with CRISPR Design Tool (website: crispr.mit.edu, Zhang Feng Lab), cloning it into pSpCas9(BB)-2A-Puro vector; co-transfecting cells with the resultant vector and a single-stranded oligonucleotide having T670I site mutation that is near to T670, subjecting the resultant to antibiotics screening, followed by dilution, and monocellular culture in a 96-well plate; validating the site T670 of the cells by sequence detection via Sanger sequencing.” left out

In the case of `Cc1ccc(NC(=O)c2ccc(CN3CCN(C)CC3)cc2)cc1Nc1nccc(-c2cccnc2)n1` [Imatinib, reference compound], the GI50 with TEL-KIT/T670I-BaF3 is over 10 µM; in the assay on TEL-KIT/V559A-BaF3, 905 nM; in the assay on TEL-KIT/V559D-BaF3, 10 nM; in the assay on TEL-KIT/V559G-BaF3, 8 nM; with TEL-KIT/V560D-BaF3, 3 nM; in the assay with TEL-KIT/V654A/V559D-BaF3, 608 nM. Also, the GI50 in the assay on TEL-KIT/V654A-BaF3 was 1410 nM; with TEL-KIT/T670E-BaF3, 4.08 µM; in the assay on TEL-KIT/T670I/V559D-BaF3 it was over 10 µM; with TEL-KIT/S709F-BaF3, 115 nM.

The record behind these values is US12404244B2, “Pan-KIT kinase inhibitor having quinoline structure and application thereof” (Tarapeutics Science Inc., priority 2018, dated 2025).
